# Laboratory results from patent US8501400B2, “Methods and compositions for determining the pathogenic status of infectious agents” (priority 2007, dated 2013).
# How the values were obtained:
# [1] = system: EMB resistant Mtb strain; format: cell-based; details: 16 hr drug treatment, MOI=1, 4 hr post-infection, RT-PCR
# [2] = system: RIF-resistant Mtb strain; format: cell-based; details: 16 hr drug treatment, MOI=1, 4 hr post-infection, RT-PCR
smiles,measurement,setting,value
"CC[C@@H](CO)NCCN[C@@H](CC)CO [EMB, Ethambutol]",SML generation after drug treatment,[1],not decreased
same,Reduction in SML generation compared to the untreated control,[2],approximately 10 fold
